Test results taken from patent US8282935B2 (priority 2001, dated 2012).

Test system: A2 molecules
Type: binding, human

M L L A V L Y C L (SEQ ID NO: 5) [tyrosinase 1-9]
binding affinity for A2 molecules: significantly lower affinity
